According to US5070210A, “Novel ketenimines as intermediates for insecticides” (ICI Americas Inc., priority 1990, dated 1991):

Tests used:
Assay type in all cases: in vivo
[1] = tested on: Housefly [Musca domestica]; test: Housefly insecticidal test; conditions: μg per 25 female flies; mortality after 48 hours
Outline: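 Residual contact test: acetone dilution, 0.01% peanut oil spreader, solvent evaporated; 25 ♀ flies (1-2 d old) per cage; sugar-water plug; 48 h mortality read. LC50 in μg/25 female flies, from dose-mortality curves; top dose 100 μg/25 flies.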

[2] = tested on: Tobacco Budworm [Heliothis virescens (Fabricius)] eggs; test: Tobacco budworm egg test; conditions: 2-day old eggs, percent in solution
Outline: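 2-day eggs on paper towel, acetone dip, 0.1% and below; petri dish with larval diet, 78° F. Mortality read after control hatch and larval feeding. LC50 = % compound in solution, from dose-mortality curve.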

[3] = tested on: Cabbage Looper [Trichoplusia ni (Hubner)]; test: Cabbage looper insecticidal test; conditions: second-instar larvae, percent in solution; 3-5 days
Outline: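 LC50 values, given as percent test compound in solution, were calculated from dosage-mortality curves. Squash cotyledons were immersed 2-3 s in acetone-water (50-50) dilutions starting at 0.1%, dried on a screen, then infested with five second-instar larvae. Mortality was read 3-5 days on.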

[4] = tested on: Aster Leafhopper [Macrosteles fascifrens (Stal)]; test: Aster leafhopper insecticidal test; conditions: adults/nymphs, percent in solution; 48 hours
Outline: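 Three ~10 cm oat seedlings per cup were dipped 2-3 seconds in 50-50 acetone-water compound solutions, dried, and caged with ten adult/nymph leafhoppers. Mortality was counted after 48 hours at concentrations from 0.05% downward. LC50, as percent compound in solution, came from dosage-mortality curves.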

[5] = tested on: Maize weevil [Sitophilus Zeamais (Motschulsky)]; test: Maize weevil insecticidal test; conditions: adult weevils, percent in solution; 48 hours
Outline: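 LC50, in percent of compound in solution, was derived from dosage-mortality curves after 48 h at about 25 °C. Ten adult weevils per container fed on four corn seeds briefly immersed in acetone:water (50:50) solutions of up to 0.01% and dried.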

Structure (SMILES): Cc1ccc(N=C(OCc2cccc(Oc3ccccc3)c2)C(C)C)cc1 [Compound 156]
- LC50, HF [1]: 10 µg
- LC50, TBW, E (TBW-E) [2]: 0.05%
- LC50, CL [3]: 0.004%
- LC50, LH [4]: > 0.05%
- LC50, MW [5]: > 0.01%

Structure (SMILES): COc1ccc(N=C(OCc2cccc(Oc3ccccc3)c2)C(C)C)cc1 [Compound 160]
- LC50, HF [1]: 7 µg
- LC50, TBW, E (TBW-E) [2]: 0.09%
- LC50, CL [3]: 0.005%
- LC50, LH [4]: 0.05%
- LC50, MW [5]: > 0.01%

Structure (SMILES): CC(C)C(=Nc1ccc(C#N)cc1)OCc1cccc(Oc2ccccc2)c1 [Compound 172]
- LC50, HF [1]: 5 µg
- LC50, TBW, E (TBW-E) [2]: 0.04%
- LC50, CL [3]: 0.002%
- LC50, LH [4]: > 0.05%
- LC50, MW [5]: > 0.01%

Structure (SMILES): c1ccc(Oc2cccc(COC(=Nc3ccc4c(c3)OCO4)C3CC3)c2)cc1 [Compound 177]
- LC50, HF [1]: 13 µg
- LC50, TBW, E (TBW-E) [2]: > 0.1%
- LC50, CL [3]: 0.002%
- LC50, LH [4]: > 0.05%
- LC50, MW [5]: 0.01%

Structure (SMILES): CCC(=Nc1ccc2c(c1)OCO2)OCc1cccc(Oc2ccccc2)c1 [Compound 178]
- LC50, HF [1]: 6 µg
- LC50, TBW, E (TBW-E) [2]: > 0.1%
- LC50, CL [3]: 0.004%
- LC50, LH [4]: > 0.05%
- LC50, MW [5]: > 0.01%

Structure (SMILES): CC(C)C(=Nc1ccc2c(c1)OCCO2)OCc1cccc(Oc2ccccc2)c1 [Compound 179]
- LC50, HF [1]: 13 µg
- LC50, TBW, E (TBW-E) [2]: > 0.1%
- LC50, CL [3]: 0.004%
- LC50, LH [4]: 0.005%
- LC50, MW [5]: > 0.01%

Structure (SMILES): CC(C)C(=Nc1ccc(-c2ccccc2)cc1)OCc1cccc(Oc2ccccc2)c1 [Compound 186]
- LC50, HF [1]: > 100 µg
- LC50, TBW, E (TBW-E) [2]: > 0.1%
- LC50, CL [3]: 0.008%
- LC50, LH [4]: > 0.05%
- LC50, MW [5]: > 0.01%

Structure (SMILES): CC(C)C(=Nc1ccc(Cl)cc1)OCc1cccc(Oc2ccc(F)cc2)c1 [Compound 189]
- LC50, HF [1]: 17 µg
- LC50, TBW, E (TBW-E) [2]: 0.07%
- LC50, CL [3]: 0.00027%
- LC50, LH [4]: 0.002%
- LC50, MW [5]: > 0.01%

Structure (SMILES): CC(C)C(=Nc1ccc(Cl)c(C(F)(F)F)c1)OCc1cccc(Oc2ccc(F)cc2)c1 [Compound 193]
- LC50, HF [1]: 100 µg
- LC50, TBW, E (TBW-E) [2]: > 0.1%
- LC50, CL [3]: 0.00075%
- LC50, LH [4]: 0.001%
- LC50, MW [5]: > 0.01%

Structure (SMILES): CC(C)C(=Nc1ccc(F)c(Cl)c1)OCc1cccc(Oc2ccc(F)c(F)c2)c1 [Compound 217]
- LC50, HF [1]: 8 µg
- LC50, TBW, E (TBW-E) [2]: 0.015%
- LC50, CL [3]: 0.00006%
- LC50, LH [4]: > 0.05%
- LC50, MW [5]: 0.0084%

Structure (SMILES): CC(C)C(=Nc1ccc2c(c1)OCO2)OCc1cccc(Oc2ccc(Cl)cc2)c1 [Compound 240]
- LC50, HF [1]: 14 µg
- LC50, TBW, E (TBW-E) [2]: 0.04%
- LC50, CL [3]: 0.0003%
- LC50, LH [4]: > 0.05%
- LC50, MW [5]: > 0.01%

Structure (SMILES): CC(C)C(=Nc1cccc(I)c1)OCc1cccc(Oc2ccc(F)cc2)c1 [Compound 255]
- LC50, HF [1]: 16 µg
- LC50, TBW, E (TBW-E) [2]: 0.075%
- LC50, CL [3]: 0.00017%
- LC50, LH [4]: 0.0005%
- LC50, MW [5]: > 0.01%

Structure (SMILES): CSc1ccc(Oc2cccc(COC(=Nc3ccc(F)c(Cl)c3)C(C)C)c2)cc1 [Compound 256]
- LC50, HF [1]: > 100 µg
- LC50, TBW, E (TBW-E) [2]: 0.1%
- LC50, CL [3]: 0.007%
- LC50, LH [4]: > 0.05%
- LC50, MW [5]: > 0.01%

Structure (SMILES): CC(C)C(=Nc1ccc(F)cc1)OCc1cccc(Oc2ccc(Br)cc2)c1 [Compound 259]
- LC50, HF [1]: 15 µg
- LC50, TBW, E (TBW-E) [2]: 0.05%
- LC50, CL [3]: 0.0003%
- LC50, LH [4]: > 0.05%
- LC50, MW [5]: > 0.01%

Structure (SMILES): CC(C)C(=Nc1cccc([N+](=O)[O-])c1)OCc1cccc(Oc2ccc(Cl)cc2)c1 [Compound 271]
- LC50, HF [1]: 27 µg
- LC50, TBW, E (TBW-E) [2]: 0.1%
- LC50, CL [3]: 0.0004%
- LC50, LH [4]: > 0.05%
- LC50, MW [5]: > 0.01%

Structure (SMILES): CC(C)C(=Nc1ccc(F)c([N+](=O)[O-])c1)OCc1cccc(Oc2ccccc2)c1 [Compound 293]
- LC50, HF [1]: 19 µg
- LC50, TBW, E (TBW-E) [2]: > 0.1%
- LC50, CL [3]: 0.0045%
- LC50, LH [4]: > 0.05%
- LC50, MW [5]: > 0.01%

Structure (SMILES): CC(C)(F)C(=Nc1ccc(F)c(Cl)c1)OCc1cccc(Oc2ccc(F)cc2F)c1 [Compound 315]
- LC50, HF [1]: > 100 µg
- LC50, TBW, E (TBW-E) [2]: > 0.1%
- LC50, CL [3]: 0.002%
- LC50, LH [4]: > 0.05%
- LC50, MW [5]: > 0.01%

Structure (SMILES): CC(C)(F)C(=Nc1ccc(F)c(Cl)c1)OCc1cc(Oc2ccc(F)cc2)ccc1F [Compound 316]
- LC50, HF [1]: 100 µg
- LC50, TBW, E (TBW-E) [2]: > 0.1%
- LC50, CL [3]: 0.0015%
- LC50, LH [4]: > 0.05%
- LC50, MW [5]: > 0.01%

Structure (SMILES): CC(C)C(=Nc1cccc(C(C)(C)C)c1)OCc1cccc(Oc2ccc(F)cc2)c1 [Compound 350]
- LC50, HF [1]: > 100 µg
- LC50, TBW, E (TBW-E) [2]: > 0.1%
- LC50, CL [3]: 0.0045%
- LC50, LH [4]: > 0.05%
- LC50, MW [5]: > 0.01%

Structure (SMILES): CC(C)C(=Nc1ccc(Br)cc1F)OCc1cccc(Oc2ccc(F)cc2)c1 [Compound 351]
- LC50, HF [1]: 26 µg
- LC50, TBW, E (TBW-E) [2]: > 0.1%
- LC50, CL [3]: 0.0007%
- LC50, LH [4]: > 0.05%
- LC50, MW [5]: > 0.01%

Structure (SMILES): CSc1ccc(N=C(OCc2ccc(F)c(Oc3ccccc3)c2)C(C)C)cc1 [Compound 353]
- LC50, HF [1]: < 100 µg
- LC50, TBW, E (TBW-E) [2]: > 0.1%
- LC50, CL [3]: > 0.1%
- LC50, LH [4]: > 0.05%
- LC50, MW [5]: > 0.01%

Structure (SMILES): Cc1ccc(N=C(OCc2ccc(F)c(Oc3ccccc3)c2)C(C)C)cc1F [Compound 354]
- LC50, HF [1]: < 100 µg
- LC50, TBW, E (TBW-E) [2]: 0.018%
- LC50, CL [3]: > 0.1%
- LC50, LH [4]: < 0.05%
- LC50, MW [5]: 0.0068%

Structure (SMILES): Cc1ccc(N=C(OCc2ccc(F)c(Oc3ccc(F)cc3)c2)C(C)C)cc1F [Compound 355]
- LC50, HF [1]: < 100 µg
- LC50, TBW, E (TBW-E) [2]: > 0.1%
- LC50, CL [3]: > 0.1%
- LC50, LH [4]: < 0.05%
- LC50, MW [5]: > 0.01%

Structure (SMILES): Cc1ccc(N=C(OCc2ccc(F)c(Oc3ccccc3)c2)C(C)C)cc1Cl [Compound 356]
- LC50, HF [1]: < 100 µg
- LC50, TBW, E (TBW-E) [2]: 0.025%
- LC50, CL [3]: > 0.1%
- LC50, LH [4]: < 0.05%
- LC50, MW [5]: > 0.01%

Structure (SMILES): Cc1ccc(N=C(OCc2ccc(F)c(Oc3ccc(F)cc3)c2)C(C)C)cc1Cl [Compound 357]
- LC50, HF [1]: < 100 µg
- LC50, TBW, E (TBW-E) [2]: > 0.1%
- LC50, CL [3]: > 0.1%
- LC50, LH [4]: < 0.05%
- LC50, MW [5]: 0.01%

Structure (SMILES): Cc1cc(N=C(OCc2ccc(F)c(Oc3ccccc3)c2)C(C)C)ccc1Br [Compound 358]
- LC50, HF [1]: < 100 µg
- LC50, TBW, E (TBW-E) [2]: > 0.1%
- LC50, CL [3]: > 0.1%
- LC50, LH [4]: < 0.05%
- LC50, MW [5]: > 0.01%

Structure (SMILES): Cc1cc(N=C(OCc2ccc(F)c(Oc3ccc(F)cc3)c2)C(C)C)ccc1Br [Compound 359]
- LC50, HF [1]: < 100 µg
- LC50, TBW, E (TBW-E) [2]: 0.023%
- LC50, CL [3]: > 0.1%
- LC50, LH [4]: 0.05%
- LC50, MW [5]: > 0.01%
